Source: PubChem BioAssay AID179 (DTP/NCI, 2004)
Active and inactive are the calls of the source.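 How the source made its calls: active means compounds giving half or more protection of infected cells from virus-caused growth loss, again on retest; inactive means the rest.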 Where a SMILES comes first, the peptide text is derived from it.

Tested on: CEM cells HIV-1 protection, formazan growth assay
Assay: NCI AIDS Antiviral Assay
Conditions: for IC50: measured here: growth of uninfected CEM cells
Summary of the method: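 Steps: treat uninfected and HIV-1-infected human CEM cells at five drug levels; quantify growth by soluble formazan; retest any compound reaching 50% protection; classify actives from the retest.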

Row | SMILES | EC50 | IC50 | outcome
1 | Cn1nc(-c2ccc(Cl)c(Cl)c2)[n+]([O-])c2c(=O)n(C)c(=O)nc1-2 | > 200 µM | 1.38 µM | –
2 | COc1cc(N(CCC#N)CCC#N)ccc1/C(N=Nc1ccc(Cl)cc1)=N/NC(=O)c1cc(Br)ccc1O | > 100 µM | 17.4 µM | –
3 | CSc1scc2c1/C(=N/NC(N)=O)CCC2 | > 200 µM | 91.2 µM | –
4 | C#CCN1CCN(C(=S)N/N=C(\C)c2ccccn2)CC1 | > 2.24 µM | 0.0724 µM | –
5 | CCCCCCCCOCC(O)COC(C)C (stereo not given) | > 200 µM | 115 µM | –
6 | CN(C)c1ccc(/C=C2\Cc3ccccc3C2=O)cc1Br | > 11 µM | > 11 µM | –
7 | CC1C2C=CC1C(c1c3ccc(=O)cc-3oc3cc(O)ccc13)C2C(=O)O (stereo not given) | 2.4 µM | 51.3 µM | –
8 | Cc1n[nH]c(=O)n1/N=C\c1ccccc1 | > 200 µM | > 200 µM | –
9 | C=CCOc1ccc(/C(N=Nc2ccc([N+](=O)[O-])cc2)=N/NC(=O)c2ccccc2)cc1OC | > 200 µM | 178 µM | –
10 | CCOCc1cc(=O)c2cc3c(cc2o1)OC(C)(C)CC3 | – | – | inactive
11 | CC(C)(C)OC(=O)NC(CSCc1ccc(C(=O)c2ccccc2)cc1)C(=O)N1CCN(CCCCN2c3ccccc3Sc3cc(N=[N+]=[N-])ccc32)CC1 (stereo not given) | > 200 µM | > 200 µM | –
12 | CC12CP(=O)(O)CC1C2(Cl)Cl (stereo not given) | > 200 µM | > 200 µM | –
13 | CN(C)C(=S)/N=c1\ssc(=S)n1C1CCCCC1 | – | – | inactive
14 | COC(=O)/C(C#N)=C(/NCCN)Nc1ccccc1 | > 200 µM | > 200 µM | –
15 | Cc1ccc(N=Nc2ccc(O)c(CN(C)C)c2)cc1 | > 200 µM | 21.9 µM | –
16 | CCCCCCCCCCOCC(COCCOCC(COCCCCCCCCCC)OS(=O)(=O)O)OS(=O)(=O)O (stereo not given) | > 186 µM | 42.7 µM | –
17 | Cc1cn(CC2OCC(CO)O2)c(=O)[nH]c1=O (stereo not given) | > 1290 µM | 1100 µM | –
18 | O=C(NNC(=O)c1ccncc1)C(=O)Nc1cc(Cl)c(Cl)cc1Cl | > 18.6 µM | > 18.6 µM | –
19 | CCOC(=O)/C(C#N)=C/c1ccc(CO)o1 | > 200 µM | > 200 µM | –
20 | Nc1nc2nn(-c3ccc(C(=O)O)cc3)nc2c(=O)[nH]1 | > 200 µM | > 200 µM | –
21 | O=C1CSc2ncccc2N1c1ccc([N+](=O)[O-])cn1 | > 200 µM | > 200 µM | –
22 | COc1ccc2c(c1)C/C(=C\c1ccc(O)c(OC)c1)C2=O | > 200 µM | > 200 µM | –

Row | SMILES | EC50 | IC50 | outcome
23 | CCOC(=O)C(NC(=O)CC)(Nc1ccc(S(=O)(=O)Nc2nc(C)cc(C)n2)cc1)C(F)(F)F (stereo not given) | > 200 µM | > 200 µM | –
24 | NC(=O)N/N=C(/CC1C(=O)Oc2ccccc21)c1ccccc1O (stereo not given) | > 550 µM | 295 µM | –
25 | O=C(Nc1ccc(Cl)cc1)NS(=O)(=O)c1coc2ccccc2c1=O | > 200 µM | 93.3 µM | –
26 | CNC(=O)C(C)Oc1ccc(OCC2CCCCC2)cc1 (stereo not given) | > 170 µM | 30.2 µM | –
27 | Cn1c(N)nc2c3ccc(=O)[nH]c3ccc21 | – | – | inactive
28 | Oc1c(C2=N[C@H]3CCCC[C@@H]3N2)ccc2ccccc12 | > 200 µM | > 200 µM | –
29 | COc1ccc(C2C(Cl)C(=O)N2NC(=O)c2ccc(N)cc2)cc1 (stereo not given) | > 200 µM | > 200 µM | –
30 | O=C(Nc1nc2ccc([N+](=O)[O-])cc2s1)C(=O)C(C1OC(=O)c2ccccc21)[N+](=O)[O-] (stereo not given) | > 81.3 µM | 51.3 µM | –
31 | COCCCNC(=O)C1C(=O)N(CCCOC)C(=O)/C1=N\N (stereo not given) | > 214 µM | > 214 µM | –
32 | O=[N+]([O-])c1ccccc1OCCOc1ccccc1[N+](=O)[O-] | > 200 µM | > 200 µM | –
33 | COC(=O)c1cc2c3c(c1)Oc1cc(C(=O)OC)cc4c1C3c1c(cc(C(=O)OC)cc1O4)O2 | > 200 µM | 55 µM | –
34 | Brc1ccc(-c2ccc3nnnn3n2)s1 | > 200 µM | > 200 µM | –
35 | CCC(N)CS(=O)(=O)O (stereo not given) | > 200 µM | > 200 µM | –
36 | Nc1ccccc1-c1ccn[nH]1 | > 200 µM | > 200 µM | –
37 | CCOC(=O)CN1CCC(C2(c3cc4ccccc4[nH]3)OCCO2)CC1 | > 363 µM | > 363 µM | –
38 | NCCCCC(NC(=O)OCc1ccccc1)C(=O)NCC(N)=O (stereo not given) (HELM PEPTIDE1{[O=C(OCc1ccccc1)[*:2]].[NCCCCC(N[*:1])C(=O)[*:2]].G.[am]}$$$$V2.0) | > 200 µM | > 200 µM | –
39 | CCOc1ccc(Nc2nc(C)c(C(=O)CC(=O)C(=O)Nc3ccc(C(C)C)cc3C(C)C)s2)cc1 | > 200 µM | 105 µM | –
40 | O=C(c1ccccc1)c1ccc2cccc(O)c2n1 | > 75.9 µM | 50.1 µM | –
41 | NNC(=O)C(O)C(O)C(=O)NN (stereo not given) | > 1410 µM | 631 µM | –
42 | Cc1nc2c(N)ncnc2o1 | > 9.55 µM | > 9.55 µM | –
43 | CC1(C)OC2COC(=O)CC2O1 (stereo not given) | > 200 µM | > 200 µM | –
44 | CCC1C(NC(=O)OC)C(=O)N1[C@@H](C)c1ccccc1 (stereo not given in full) | > 200 µM | > 200 µM | –
